Reference: US20030050307A1, “Novel indole derivatives” (H. Lundbeck A/S, priority 1999, published 2003)
Structures can show the parent of a compound that is named as a salt.

Experiments:
[1] = molecular target: T1, human cloned dopamine D4.2-receptors (Homo sapiens, UniProt P21917, DEL265-296); assay: Inhibition of the binding of 3H-YM-09151-2 to human dopamine D4 receptors; conditions: [3H]YM-09151-2 0.06 nM
T1 construct: expressed in transfected cells; host or cells: CHO cells
T1 sequence (P21917 with tags, fused parts or gaps DEL265-296): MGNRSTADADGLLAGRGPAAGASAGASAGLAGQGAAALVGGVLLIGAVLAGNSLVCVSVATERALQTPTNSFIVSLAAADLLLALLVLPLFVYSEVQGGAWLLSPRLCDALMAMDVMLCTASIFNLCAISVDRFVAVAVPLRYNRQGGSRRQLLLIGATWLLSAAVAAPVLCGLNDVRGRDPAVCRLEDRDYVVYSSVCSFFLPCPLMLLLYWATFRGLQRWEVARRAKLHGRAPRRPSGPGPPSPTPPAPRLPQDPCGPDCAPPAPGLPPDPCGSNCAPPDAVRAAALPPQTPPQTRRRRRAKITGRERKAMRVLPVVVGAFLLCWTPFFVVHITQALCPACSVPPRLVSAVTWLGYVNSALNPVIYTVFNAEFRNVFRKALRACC
Experimental: Inhibition of the Binding of ^3H-YM-09151-2 to Human Dopamine D4 Receptors
By this method, the inhibition by drugs of the binding of [^3H]YM-09151-2 (0.06 nM) to membranes of human cloned dopamine D4.2-receptors expressed in CHO-cells is determined in vitro. Method modified from NEN Life Science Products, Inc., technical data certificate PC2533-10/96.

[2] = molecular target: T2, cloned human 5-HT1A-receptors (Homo sapiens, UniProt P08908); assay: Inhibition of 3H-5-CT binding to human 5-HT1A receptors; conditions: transfected HeLa cells (HA7), 15 minutes at 37° C., pH 7.7
T2 construct: expressed in transfected cells; host or cells: HeLa cells (HA7)
T2 sequence (P08908 1-422): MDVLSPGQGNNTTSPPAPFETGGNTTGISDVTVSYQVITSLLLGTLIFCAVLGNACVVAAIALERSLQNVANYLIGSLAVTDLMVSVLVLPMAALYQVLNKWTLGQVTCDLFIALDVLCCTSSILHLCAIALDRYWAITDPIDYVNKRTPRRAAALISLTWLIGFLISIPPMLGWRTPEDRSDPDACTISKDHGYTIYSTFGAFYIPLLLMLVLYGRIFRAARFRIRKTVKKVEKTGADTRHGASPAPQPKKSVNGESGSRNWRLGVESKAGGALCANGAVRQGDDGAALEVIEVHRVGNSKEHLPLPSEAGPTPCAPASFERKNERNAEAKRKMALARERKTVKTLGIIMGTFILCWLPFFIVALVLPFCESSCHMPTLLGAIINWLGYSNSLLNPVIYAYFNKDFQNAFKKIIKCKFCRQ
Experimental: The affinity of the compounds of the invention to 5-HT1A receptors was determined by measuring the inhibition of binding of a radioactive ligand at 5-HT1A-receptors as described in the following test:
Inhibition of ^3H-5-CT Binding to Human 5-HT1A Receptors.
By this method, the inhibition by drugs of the binding of the 5-HT1A-agonist ^3H-5-carboxamido tryptamine (^3H-5-CT) to cloned human 5-HT1A-receptors stably expressed in transfected HeLa cells (HA7) (Fargin, A. et al. J. Biol. Chem. 1989, 264, 14848) is determined in vitro. The assay was performed as a modification of the method described by Harrington, M. A. et al. J. Pharmacol. Exp. Ther. 1994, 268, 1098. Human 5-HT1A-receptors (40 μg of cell homogenate) were incubated for 15 minutes at 37° C. in 50 mM Tris buffer at pH 7.7 in the presence of ^3H-5-CT. Non-specific binding was determined by including 10 μM of metergoline. The reaction was terminated by rapid filtration through Unifilter GF/B filters on a Tomtec Cell Harvester. Filters were counted in a Packard Top Counter.

[3] = at 100 nM, CHO-cell membranes, human D4.2

SMILES | inhibition at 0.1 µM [1, 3] [%] | inhibition at 0.05 µM ([2]; at 50 nM) [%] | also measured
Brc1ccccc1SCCCN1CCN(c2cccc3[nH]ccc23)CC1 (as salt: oxalate) [Compound 2b, 4-(4-[3-(2-Bromo-phenylsulfanyl)-propyl]-piperazin-1-yl}-1H-indole] | – | – | melting point: 163 to 166 °C
Brc1ccccc1OCCCN1CCN(c2cccc3[nH]ccc23)CC1 (as salt: oxalate) [Compound 2c, 4-{4-[3-(2-Bromo-phenoxy)-propyl]-piperazin-1-yl}-1H-indole] | – | – | melting point: 206 to 208 °C
Fc1ccc(OCCCCN2CCN(c3cccc4[nH]ccc34)CC2)c(Br)c1 (as salt: oxalate) [Compound 2d, 4-{4-[4-(2-Bromo-4-fluoro-phenoxy)-butyl]-piperazin-1-yl}-1H-indole] | – | – | melting point: 218 to 220 °C
Cc1cccc(Cl)c1SCCCCN1CCN(c2cccc3[nH]ccc23)CC1 (as salt: oxalate) [Compound 2e, 4-{4-[4-(2-Chloro-6-methyl-phenylsulfanyl)-butyl]-piperazin-1-yl}-1H-indole] | – | – | melting point: 199 to 210 °C
Clc1cccc(Cl)c1SCCN1CCN(c2cccc3[nH]ccc23)CC1 (as salt: oxalate) [Compound 3b, 4-(4-[2-(2,6-Dichloro-phenylsulfanyl)-ethyl]-piperazin-1-yl)-1H-indole] | – | – | melting point: 130 to 133 °C (dec.)
Clc1ccc(SCCN2CCN(c3cccc4[nH]ccc34)CC2)cc1Cl (as salt: oxalate) [Compound 3c, 4-{4-[2-(3,4-Dichloro-phenylsulfanyl)-ethyl]-piperazin-1-yl}-1H-indole] | – | – | melting point: 140 to 141 °C
Clc1ccccc1OCCCN1CCN(c2cccc3[nH]ccc23)CC1 [Compound 1, 4-{4-[3-(2-Chloro-phenoxy)-propyl]-piperazin-1-yl}-1H-indole] | – | – | IC50 ([1]; membranes of CHO-cells expressing human D4.2): 92 nM; IC50 [2]: 12 nM; melting point: 189 to 199 °C
c1ccc(SCCCCN2CCN(c3cccc4[nH]ccc34)CC2)cc1 [Compound 5aj, 4-[4-(4-Phenylsulfanyl-butyl)-piperazin-1-yl]-1H-indole] | 100 | 77 | –
N#Cc1ccc(OCCCCN2CCN(c3cccc4[nH]ccc34)CC2)c(Cl)c1 [Compound 5ap] | – | – | Inhibition of 3H-YM-09151 binding % inhibition at 100 nM [1, 3]: 106%; Inhibition of 3H-5-CT Binding % inhibition at 50 nM ([2]; at 50 nM): 100%
Clc1ccccc1SCCCCN1CCN(c2cccc3[nH]ccc23)CC1 [Compound 5ar, 4-{4-[4-(2-Chloro-phenylsulfanyl)-butyl]-piperazin-1-yl}-1H-indole] | 98 | 104 | –
N#Cc1cccc(OCCCCN2CCN(c3cccc4[nH]ccc34)CC2)c1 [Compound 5at, 3-{4-[4-(1H-Indol-4-yl)-piperazin-1-yl]-butoxy}-benzonitrile] | 95 | 92 | –
COc1ccc(SCCCCN2CCN(c3cccc4[nH]ccc34)CC2)cc1OC [Compound 5av, 4-{4-[4-(3,4-Dimethoxy-phenylsulfanyl)-butyl]-piperazin-1-yl}-1H-indole] | 107 | 69 | –
FC(F)(F)c1ccc(SCCCN2CCN(c3cccc4[nH]ccc34)CC2)cc1 [Compound 5aw, 4-{4-[3-(4-Trifluoromethyl-phenylsulfanyl)-propyl]-piperazin-1-yl}-1H-indole] | 99 | 98 | –
FC(F)(F)Oc1ccc(SCCCN2CCN(c3cccc4[nH]ccc34)CC2)cc1 [Compound 5ax, 4-{4-[3-(4-Trifluoromethoxy-phenylsulfanyl)-propyl]-piperazin-1-yl}-1H-indole] | 98 | 81 | –
CC(C)c1ccccc1SCCCN1CCN(c2cccc3[nH]ccc23)CC1 [Compound 5az, 4-{4-[3-(2-Isopropyl-phenylsulfanyl)-propyl]-piperazin-1-yl}-1H-indole] | 94 | 98 | –
COc1ccccc1OCCCCN1CCN(c2cccc3[nH]ccc23)CC1 [Compound 5ba, 4-{4-[4-(2-Methoxy-phenoxy)-butyl]-piperazin-1-yl}-1H-indole] | 80 | 83 | –
CC(C)c1ccccc1SCCCCN1CCN(c2cccc3[nH]ccc23)CC1 [Compound 5bb, 4-{4-[4-(2-Isopropyl-phenylsulfanyl)-butyl]-piperazin-1-yl}-1H-indole] | 94 | 94 | –

The next lines start with results.

inhibition at 0.1 µM [1, 3] [%] | inhibition at 0.05 µM ([2]; at 50 nM) [%] | SMILES | also measured
93 | 91 | Cc1ccc(Cl)c(OCCCCN2CCN(c3cccc4[nH]ccc34)CC2)c1 [Compound 5ak, 4-{4-[4-(2-Chloro-5-methyl-phenoxy)-butyl]-piperazin-1-yl}-1H-indole] | –
96 | 92 | Clc1ccc(Cl)c(SCCN2CCN(c3cccc4[nH]ccc34)CC2)c1 [Compound 5al, 4-{4-[2-(2,5-Dichloro-phenylsulfanyl)-ethyl]-piperazin-1-yl}-1H-indole] | –
83 | 93 | Clc1cccc(SCCN2CCN(c3cccc4[nH]ccc34)CC2)c1 [Compound 5am, 4-{4-[2-(3-Chloro-phenylsulfanyl)-ethyl]-piperazin-1-yl}-1H-indole] | –
83 | 91 | Clc1ccccc1SCCN1CCN(c2cccc3[nH]ccc23)CC1 [Compound 5an, 4-{4-[2-(2-Chloro-phenylsulfanyl)-ethyl]-piperazin-1-yl}-1H-indole] | –
102 | 100 | Clc1cccc(SCCCN2CCN(c3cccc4[nH]ccc34)CC2)c1 [Compound 5ao, 4-{4-[3-(3-Chloro-phenylsulfanyl)-propyl]-piperazin-1-yl}-1H-indole] | –
98 | 100 | Clc1cccc(SCCCCN2CCN(c3cccc4[nH]ccc34)CC2)c1 [Compound 5aq, 4-{4-[4-(3-Chloro-phenylsulfanyl)-butyl]-piperazin-1-yl}-1H-indole] | –
99 | 103 | Cc1ccc(SCCCN2CCN(c3cccc4[nH]ccc34)CC2)cc1C [Compound 5as, 4-{4-[3-(3,4-Dimethyl-phenylsulfanyl)-propyl]-piperazin-1-yl}-1H-indole] | –
97 | 99 | Clc1ccc(Cl)c(OCCCCN2CCN(c3cccc4[nH]ccc34)CC2)c1 [Compound 5au, 4-{4-[4-(2,5-Dichloro-phenoxy)-butyl]-piperazin-1-yl}-1H-indole] | –
105 | 96 | Brc1cccc(SCCCN2CCN(c3cccc4[nH]ccc34)CC2)c1 [Compound 5ay, 4-{4-[3-(3-Bromo-phenylsulfanyl)-propyl]-piperazin-1-yl}-1H-indole] | –
